Reference: patent publication US9012454B2, “Sexual dysfunction” (Mayo Foundation for Medical Education and Research, priority 2005, dated 2015)

Key:
[1] = test system: surgical infarct model of CHF; experiment: Transthoracic echocardiography in surgical infarct (LAD ligation) model of CHF; assay type: in vivo, rat; conditions: for fractional shortening (FS): 4 weeks after surgery, captopril 100 mg/kg/day or prazosin 2 mg/kg/day, mean±SEM
Description: Adult male Sprague-Dawley rats (Harlan, Indianapolis, Ind.) weighing 400-450 grams were put under general anesthesia by intraperitoneal injection with a mixture (3:3:2) of ketamine (100 mg/mL), xylazine (20 mg/mL), and acepromazine (10 mg/mL). After intubation, the rats were ventilated continuously (room air) using a small animal ventilator (model 683, Harvard Apparatus, Holliston, Mass.). A left lateral thoracotomy incision was made along the 5th intercostal space. After the pericardium was opened, the heart was exteriorized using a retention suture placed at the apex. The left anterior descending coronary artery (LAD) was ligated twice using 6-0 prolene suture (Ethicon, Piscataway, N.J.). After chest closure with running 3-0 vicryl suture (Ethicon), rats were placed in a recovery chamber with a heating pad and a warming light.
Beginning on post-operative day one, rats were allowed to drink ad libitum. One group was fed water with captopril (2 g/L), and another group was fed water alone (Pfeffer et al., Circ. Res., 57:84-95 (1985)). The rats were fed a standard diet of Teklad rodent feed (Harlan) ad libitum and kept on a 12:12 hour light-dark cycle. In both the captopril- and the placebo-treated group, the rats were sacrificed at designated time intervals of 2 weeks and then 4, 6, and 8 weeks after surgery. On average, the rats drank approximately 20 mL of water daily, which corresponded to a dose of 100 mg/kg/day of captopril.
All rats in the placebo- and captopril-treated groups underwent transthoracic echocardiography (Acuson Sequoia C256® Echocardiography System, Siemens Medical Solutions USA, Inc., Malvern, Pa.) at baseline prior to LAD ligation and at 2, 4, 6, and 8 weeks after LAD ligation using 2-D digital loop imaging under conscious sedation with vaporized isoflurane as described previously (Karim et al., Circ. Res., 95:612-18 (2004); Morgan et al., Am. J. Physiol. Heart Circ. Physiol., 287:H2049-H2053 (2004)). […] Both parasternal long and short axis views were obtained using a 13-MHz linear array transducer. Digital calipers were used to measure end systolic dimension (ESD) and end diastolic dimension (EDD). Cardiac function was estimated using fractional shortening (FS) obtained from the EDD and ESD in the parasternal long axis view and calculated as FS=((EDD−ESD)/EDD)×100%.
The echocardiographic data were reported as mean±SEM.

LZ+ MYPT1 isoform = experiment: Western blot of relative LZ+ MYPT1 isoform expression in vascular smooth muscle after LAD ligation; assay type: in vivo, rat; conditions: for LZ+ MYPT1 isoform expression in aorta (in words) / LZ+ MYPT1 isoform expression in iliac artery (in words): captopril 2-8 weeks, prazosin 4 weeks

Row | Structure (SMILES) | fractional shortening (FS) ([1]; infarct rats) | LZ+ MYPT1 isoform expression in the aorta (fall versus uninfarcted control) (LZ+ MYPT1 isoform; aorta, 4 weeks after infarction, placebo 44±1%, P<0.05) | LZ+ MYPT1 isoform expression in the iliac artery (fall versus uninfarcted control) (LZ+ MYPT1 isoform; iliac artery, 4 weeks after infarction, placebo 52±2%, P=0.87) | LZ+ MYPT1 isoform expression in aorta (in words) (LZ+ MYPT1 isoform; infarct rats, aorta) | LZ+ MYPT1 isoform expression in iliac artery (in words) (LZ+ MYPT1 isoform; infarct rats, iliac artery) | effect on fractional shortening / left ventricular function (LVF) ([1]; infarct rats versus placebo, captopril as early as 2 weeks post-infarction, prazosin at 4 weeks) | end systolic dimension (ESD) compared to placebo ([1]; infarct rats, all time-points (2, 4, 6, 8 weeks), P<0.05) | LZ+ MYPT1 isoform expression in portal vein (in words) (LZ+ MYPT1 isoform; infarct rats, portal vein, all time intervals)
1 | COc1cc2nc(N3CCN(C(=O)c4ccco4)CC3)nc(N)c2cc1OC [prazosin] | 38±2% | 68±1% | 54±2% | did not prevent the fall | did not prevent the fall |  |  | 
2 | C[C@H](CS)C(=O)N1CCC[C@H]1C(=O)O [captopril] | 45±1% |  |  | preserved at the uninfarcted control level | preserved at the level of the uninfarcted control smooth muscle | attenuated the fall in FS and improved left ventricular function | reduced the ESD | remained low
